Test results from patent US20250332112A1, “IONIZABLE CATIONIC LIPIDS FOR LIPID NANOPARTICLES” (GENEVANT SCIENCES GMBH, priority 2022, published 2025).

Experiments:
[1] = system: luciferase activity in the liver; test: Luciferase activity in liver after intravenous luciferase mRNA LNP; format: in vivo; conditions: 0.5 mg/kg IV, 6 h post-IV administration, BALB/c mice (n = 4)
Method: Frozen aliquots of liver were thawed and homogenized in 1 mL of 1×CCLR (Cell Culture Lysis Reagent) using a FastPrep® homogenizer. The homogenate was then centrifuged at 16,000 RPM for 10 minutes at 4° C. Twenty (20) μL of the supernatant was loaded into a 96-well white plate and luminescence measured following addition of luciferase reagent (Promega Luciferase Assay System). Luciferase activity was determined by comparing luminescence of the homogenized samples to luciferase protein standards. To account for any quenching of luminescence by components in the liver homogenate, luciferase was added to the liver homogenates of untreated animals and the resulting luminescence measured. The resulting quench factor was applied to all samples to obtain the corrected luciferase activity, and normalized per unit mass of tissue analyzed.

[2] = Parent ionizable lipid remaining in liver at 6 h after luciferase mRNA LNP (LC-MS); format: in vivo; conditions: 6 h after IV 0.5 mg/kg Luciferase mRNA LNP
Method: Liver tissues were treated with PBS and homogenized with a FastPrep machine, 3 cycles of 5 m/s×15 s. Homogenates from the PBS-treated control animals was pooled and used for standard curve preparation. Samples were extracted into a deep well plate with 250 μL of an internal suitability standard. Plates were centrifuged for 15 min at 4° C. and 2000 rpm. Analysis was performed using an Agilent 6520 QTOF coupled to an Agilent 1290 UHPLC, using reverse-phase LC separation. Quantitation of the ionizable lipid was by MS/MS against a calibration curve spiked into appropriately matched blank matrix. Calibration used a similar class of synthetic lipid as internal standard.
At 6 h post-dose, some treatment groups reported lower levels of novel ionizable lipid in mouse liver compared to the benchmark (Tables 16-18).

[3] = Particle characteristics of LNPs containing luciferase mRNA and novel ionizable lipids; format: physicochemical; conditions: luciferase mRNA LNP 1.6:54.6:32.8:10.9
Method: The lipid solution contains 4 components: a PEG-conjugated lipid, an ionizable lipid, cholesterol, and a phospholipid (e.g., DSPC). Lipid stocks were prepared using the lipid identities and molar ratios as described, to achieve a total concentration of ˜7 mg/mL in 100% ethanol. Firefly luciferase mRNA (TriLink Biotechnologies, L-7202) or ornithine transcarbamylase (OTC) mRNA (TriLink Biotechnologies, custom designed) was diluted in acetate, pH 5 buffer and nuclease free water to achieve a target concentration of 0.366 mg/mL mRNA in 100 mM acetate, pH 5. Equal volumes of the lipid and nucleic acid solutions were blended at a flow rate of 400 mL/min through a T-connector, and diluted with ˜4 volumes of PBS, pH 7.4. Formulations were placed in Slide-A-Lyzer dialysis units (MWCO 10,000) and dialyzed overnight against 10 mM Tris, 500 mM NaCl, pH 8 buffer. Following dialysis, the formulations were concentrated to ˜0.6 mg/mL using VivaSpin concentrator units (MWCO 100,000) and dialyzed overnight against 5 mM Tris, 10% sucrose, pH 8 buffer. Formulations were filtered through a 0.2 μm syringe filter (PES membrane). Nucleic acid concentration was determined by the RiboGreen assay. Particle size and polydispersity were determined using a Malvern Nano Series Zetasizer.
LNP formulations containing novel ionizable lipids all produced stable particles with high encapsulation efficiency (Tables 1-7).

[4] = Table 16, female BALB/c mice (n = 4)
[5] = Table 18, female BALB/c mice (n = 4)

Row | Compound | Luc Activity ([1]; Table 10) | Parent ionizable lipid remaining in liver, Average [2, 4] | Final Product % EE ([3]; Table 3) | Final Product PDI ([3]; Table 3) | Final Product Z-avg ([3]; Table 3) | Parent ionizable lipid remaining in liver, Average [2, 5] | Luc Activity ([1]; Table 14) | Final Product % EE ([3]; Table 7) | Final Product PDI ([3]; Table 7) | Final Product Z-avg ([3]; Table 7) | further results
1 | CCCCCCCCCCC(CCCCCC(=O)OCC(CCCCCC)CCCCCCCC)N(CCCCCCCCCC)C(=O)CCCN(C)C (centres unmarked) [Compound 4, 2-Hexyldecyl 7-(N-decyl-4-(dimethylamino)butanamido)heptadecanoate] | 7.84E+07 pg/g liver | 18.97 nmol/g liver | 99% | 0.03 | 82 nm |  |  |  |  |  | 
2 | CCCCCCCCCCC(CCCCCCCC(=O)OC(CCCCCC)CCCCCC)N(CCCCCCCCCC)C(=O)CCCN(C)C (centres unmarked) [Compound 5, Tridecan-7-yl 9-(N-decyl-4-(dimethylamino)butanamido)nonadecanoate] |  |  |  |  |  |  |  |  |  |  | Luc Activity ([1]; Table 13): 9.49E+07 pg/g liver; Parent ionizable lipid remaining in liver, Average ([2]; Table 17, female mice (n = 4)): 49.53 nmol/g liver; Final Product % EE ([3]; Table 6): 99%; Final Product PDI ([3]; Table 6): 0.05; Final Product Z-avg ([3]; Table 6): 68 nm
3 | CCCCCCCCCCN(C(=O)CCCN(C)C)C(CCCCCCCCC)CCCCCCC(F)(F)C(=O)OCC(CCCCCC)CCCCCCCC (centres unmarked) [Compound 17, 2-Hexyldecyl 9-(N-decyl-4-(dimethylamino)butanamido)-2,2-difluorooctadecanoate] |  |  |  |  |  | 36.58 nmol/g liver |  |  |  |  | Luc Activity ([1]; Table 13): 5.52E+07 pg/g liver; Parent ionizable lipid remaining in liver, Average ([2]; Table 17, female mice (n = 4)): 24.00 nmol/g liver; Final Product % EE ([3]; Table 6): 99%; Final Product PDI ([3]; Table 6): 0.10; Final Product Z-avg ([3]; Table 6): 68 nm
4 | CCCCCCCCCCN(C(=O)CCCN(C)C)C(CCCCCCCCC)CCCCCCC(F)(F)C(=O)OCCC(CCCCCCC)CCCCCCC (centres unmarked) [Compound 18, 3-Heptyldecyl 9-(N-decyl-4-(dimethylamino)butanamido)-2,2-difluorooctadecanoate] |  |  |  |  |  |  |  |  |  |  | Luc Activity ([1]; Table 13): 4.32E+07 pg/g liver; Parent ionizable lipid remaining in liver, Average ([2]; Table 17, female mice (n = 4)): 17.02 nmol/g liver; Final Product % EE ([3]; Table 6): 98%; Final Product PDI ([3]; Table 6): 0.07; Final Product Z-avg ([3]; Table 6): 73 nm
5 | CCCCCCCCCCN(C(=O)CCCN(C)C)C(CCCCCCCCC)CCCCCCC(F)(F)C(=O)OC(CCCCC)CCCCC (centres unmarked) [Compound 19, Undecan-6-yl 9-(N-decyl-4-(dimethylamino)butanamido)-2,2-difluorooctadecanoate] |  |  |  |  |  |  |  |  |  |  | Luc Activity ([1]; Table 13): 1.25E+06 pg/g liver; Parent ionizable lipid remaining in liver, Average ([2]; Table 17, female mice (n = 4)): 20.22 nmol/g liver; Final Product % EE ([3]; Table 6): 99%; Final Product PDI ([3]; Table 6): 0.09; Final Product Z-avg ([3]; Table 6): 71 nm
6 | CCCCCCCCCCN(C(=O)CCCN(C)C)C(CCCCCCCCC)CCCCCCC(F)(F)C(=O)OCCC(CCCCC)CCCCC (centres unmarked) [Compound 20, 3-Pentyloctyl 9-(N-decyl-4-(dimethylamino)butanamido)-2,2-difluorooctadecanoate] |  |  |  |  |  | 1.82 nmol/g liver | 2.71E+07 pg/g liver | 98% | 0.08 | 72 nm | 
7 | CCCCCCCCCCCCCOC(=O)CCCCC(CCCCCCCCCC)N(CCN(C)C)C(=O)CCCCC(=O)OCC(CCCC)CCCCCC (centres unmarked) [Compound 23, tridecyl 6-{6-[(2-butyloctyl)oxy]-N-[2-(dimethylamino)ethyl]-6-oxohexanamido}hexadecanoate] | 4.44E+06 pg/g liver | 31.85 nmol/g liver | 97% | 0.06 | 69 nm |  |  |  |  |  | 
8 | CCCCCCCCCCCCCOC(=O)CCCCC(CCCCCCCCCC)N(CCN(C)C)C(=O)CCCCCCC(=O)OCC(CCCC)CCCCCC (centres unmarked) [Compound 24, Tridecyl 6-(8-((2-butyloctyl)oxy)-N-(2-(dimethylamino)ethyl)-8-oxooctanamido)-hexadecanoate] | 3.98E+06 pg/g liver | 35.16 nmol/g liver | 96% | 0.08 | 72 nm |  |  |  |  |  | 
9 | CCCCCCCCCCN(C(=O)CCCN(C)C)C(CCCCCCCCC)CC(=O)OCC(CCCCCC)CCCCCCCC (centres unmarked) [Compound 32, 2-hexyldecyl 3-[N-decyl-4-(dimethylamino)-butanamido]dodecanoate] | 3.07E+07 pg/g liver | 21.66 nmol/g liver | 99% | 0.02 | 85 nm |  |  |  |  |  | 
10 | CCCCCCCCCC(CCCCCCC(F)C(=O)OCCC(CCCCC)CCCCC)N(CCCCCC(F)C(=O)OCCC(CCCCC)CCCCC)C(=O)CCCN(C)C (centres unmarked) [Compound 34, 3-pentyloctyl 9-[4-(dimethylamino)-N-{6-fluoro-7-oxo-7-[(3-pentyloctyl)oxy]heptyl}butanamido]-2-fluorooctadecanoate] |  |  |  |  |  | 1.78 nmol/g liver | 1.91E+06 pg/g liver | 99% | 0.10 | 70 nm | 
11 | CCCCCCCCCCON(C(=O)CCCN(C)C)C(CCCCCCCCC)CCCCCCC(F)C(=O)OCCC(CCCCC)CCCCC (centres unmarked) [Compound 38, 3-pentyloctyl 9-[N-(decyloxy)-4-(dimethylamino)butanamido]-2-fluorooctadecanoate] |  |  |  |  |  | 3.14 nmol/g liver | 2.13E+07 pg/g liver | 98% | 0.17 | 65 nm | 
12 | CCCCCCCCCCON(C(=O)CCCN(C)C)C(CCCCCCCCCC)CCCCCCC(F)(F)C(=O)OCCC(CCCCC)CCCCC (centres unmarked) [Compound 39, 3-pentyloctyl 9-[N-(decyloxy)-4-(dimethylamino)butanamido]-2,2-difluorononadecanoate] |  |  |  |  |  | 2.91 nmol/g liver | 4.30E+06 pg/g liver | 98% | 0.19 | 59 nm | 
13 | CCCCCCCCCCON(C(=O)CCCCN(C)C)C(CCCCCCCCCC)CCCCCC(=O)OCC(CCCCCC)CCCCCCCC (centres unmarked) [Compound 47, 2-Hexyldecyl 7-(N-(decyloxy)-5-(dimethylamino)pentanamido)heptadecanoate] |  |  |  |  |  | 54.78 nmol/g liver | 8.09E+07 pg/g liver | 98% | 0.07 | 77 nm | 
14 | CCCCC/C=C\CCCN(CCC/C=C\CCCCC)NC(=O)CC(CCCCCCCCC)N(CCCN(C)C)C(=O)CCCCCCCCC (centres unmarked) [Compound 54, N-(1-(2,2-di((Z)-Dec-4-en-1-yl)hydrazineyl)-1-oxododecan-3-yl)-N-(3-(dimethylamino)-propyl)decanamide] | 3.28E+06 pg/g liver | 17.78 nmol/g liver | 97% | 0.05 | 82 nm |  |  |  |  |  | 
